Source: patent US11932638B2, “Ion channel inhibitor compounds for cancer treatment” (Centre National de la Recherche Scientifique, priority 2017, dated 2024)
Like-named read-outs stand apart in the source and are kept apart here.

Molecular target: T1, SK3 channel (Rattus norvegicus, UniProt P70605)
T1 construct: expressed in transfected cells
Assay: Conventional manual patch clamp on HEK-rSK3 cells, SK3 channel activity
Assay type: cell-based
Settings: for inhibition at 0.5 µM: 500 nM
Excerpt: Cell Lines Used to Screen the Molecules on the Activity of SKCa Channels (Small Conductance Calcium-Activated Potassium Channel; SK1, SK2 and SK3) and IKCa Channels (Intermediate Conductance Calcium-Activated Potassium Channel, SK4)
Use was made of the HEK 293 T line, a foetal kidney line which was immortalised with the T antigen of the […] simian virus. This cell line is widely used on account of the ease with which these cells can be transfected with plasmids or other transfection vectors. Four stable lines were used for patch clamp experiments: HEK-hSK1, HEK-rSK2, HEK-rSK3 and HEK-IKCa/SK4 which respectively overexpress the SK1, SK2, SK3 and SK4 channels. The lines were obtained via stable transduction (Girault et al., Current Cancer Drug Targets, 2011, 11, 1111-25) and are those already routinely used to assay SK3 modulators (Potier et al. Br J Pharmacol. 2011 January; 162(2):464-79; Sevrain et al., Med. Chem. Commun., 2012, 3, 1471-1478; Sevrain et al., Organic & Biomolecular Chemistry, 2013 Jul. 21; 11(27):4479-87, Berthe W, Sevrain C M, Chantôme A, Bouchet A M, Gueguinou M, Fourbon Y, Potier-Cartereau M, Haelters J P, Couthon-Gourvès H, Vandier C, Jaffrès P A. ChemMedChem. 2016 Jul. 19; 11(14):1531-9). […] These lines therefore enabled us without difficulty to examine the effect of the molecules on the SK3 channel, and also the selectivity thereof by means of the patch clamp technique. The inhibitory activity of the non-toxic molecules was assayed on the activity of the SK3 channel. The selectivity of the molecules was determined by patch clamp on HEK cell models stably expressing the SK3 channel but also the SK1, SK2, SK3 or IKCa/SK4 channels.
Electrophysiology/Patch-Clamp
Patch clamp is a technique allowing measurement of the activity of ion channels by recording macroscopic (whole cell configuration) or microscopic (e.g. inside out configuration) ionic currents through the plasma membrane. For assay of the effect of the molecules on the SKCa/IKCa channels, two complementary techniques were used: conventional, manual patch clamp and automated patch clamp with the Nanion NPC-16 Patchliner Quattro (4 channels) (Potier et al., Mol Cancer Ther 2006, 5, 2946-53; Chantome et al., Exp Cell Res 2009, 315, 3620-30; Potier et al., Biochem Biophys Res Commun 2010, 397, 42-7; Girault et al., Current Cancer Drug Targets, 2011, 11, 1111-25; Sevrain et al., Med. Chem. Commun., 2012, 3, 1471-1478; Sevrain et al., Organic & Biomolecular Chemistry, 2013 Jul. 21; 11(27):4479-87; Chantome et al., Cancer Research, 2013 Aug. 1; 73(15):4852-61, Gueguinou M, Crottès D, Chantôme A, Rapetti-Mauss R, Potier-Cartereau M, Clarysse L, Girault A, Fourbon Y, Jézéquel P, Guérin-Charbonnel C, Fromont G, Martin P, Pellissier B, Schiappa R, Chamorey E, Mignen O, Uguen A, Borgese F, Vandier C, Soriani O. Oncogene. 2017 Jan. 23. doi: 10.1038/onc.2016.501, Berthe W, Sevrain C M, Chantôme A, Bouchet A M, Gueguinou M, Fourbon Y, Potier-Cartereau M, Haelters J P, Couthon-Gourvès H, Vandier C, Jaffrès P A. ChemMedChem. 2016 Jul. 19; 11(14):1531-9, Guéguinou M, Harnois T, Crottes D, Uguen A, Deliot N, Gambade A, Chantôme A, Haelters J P, Jaffrès P A, Jourdan M L, Weber G, Soriani O, Bougnoux P, Mignen O, Bourmeyster N, Constantin B, Lecomte T, Vandier C, Potier-Cartereau M. Oncotarget. 2016 Jun. 14; 7(24):36168-36184. doi: 10.18632/oncotarget.8786).
For conventional patch clamp, the micropipette is filled with an intrapipette medium—IPM (see composition below) and allows measurement of ionic currents at the same time as allowing maintaining of membrane potential (voltage clamp). The experimental device was composed of an anti-vibration table supporting an inverted microscope (Nikon, Eclipse TE 300). The Petri dish (Corning Incorporated, USA), containing the cells was placed on a plexiglass plate attached to the microscope stage. The pipette was connected to the amplifier (Axopatch 200B) as reference electrode which allowed closing of the electrical circuit. […]

| inhibition at 10 µM (10 μM) [%] | inhibition at 0.1 µM (100 nM) [%] | inhibition at 0.5 µM [%] | inhibition at 0.05 µM (50 nM) [%] | Structure (SMILES) | other results |
| --- | --- | --- | --- | --- | --- |
|  | 37.1 | 75.8 |  | Fc1nc(N[C@H]2CCCc3ccccc32)c2ncccc2n1 [Compound 49, (S)-2-Fluoro-N-(1,2,3,4-tetrahydronaphthalen-1-yl)pyrido [3,2-d]pyrimidin-4-amine] | inhibition at 0.25 µM (250 nM): 83.1% |
| 7.54 |  |  |  | c1ccc2c(c1)CCCC2Nc1ncnc2ncccc12 (stereo not drawn) [Compound 47, N-(1,2,3,4-Tetrahydronaphthalen-1-yl)pyrido[2,3-d]pyrimidin-4-amine] |  |
|  |  | 48.5 | 18.4 | CCCCCCOc1cnc2c(NC3CCCc4ccccc43)ncnc2c1 (stereo not drawn) [Compound 74, 7-Hexoxy-N-tetralin-1-yl-pyrido[3,2-d]pyrimidin-3-ium-4-amine chloride] |  |
|  |  | 39.9 | 16.1 | Fc1ccc2c(c1)C(Nc1ncnc3cccnc13)CCC2 (stereo not drawn) [Compound 90, N-(7-fluoro-1,2,3,4-tetrahydronaphthalen-1-yl)pyrido[3,2-d]pyrimidin-4-amine] |  |
| 67.3 | 56.3 |  | 39 | Clc1ccc2ncnc(N[C@H]3CCCc4ccccc43)c2n1 [Compound 133, 6-Chloro-N-[(1S)-tetralin-1-yl]pyrido[3,2-d]pyrimidin-4-amine] |  |
| 74 | 51.9 |  | 31.4 | Clc1cnc2c(NC3CCCc4ccccc43)ncnc2c1 (stereo not drawn) [Compound 38, 7-Chloro-N-(1,2,3,4-tetrahydronaphthalen-1-yl)pyrido[3,2-d]pyrimidin-4-amine] |  |
| 54 | 51.1 |  | 32 | Fc1ccc2c(c1)CCCC2Nc1ncnc2cccnc12 (stereo not drawn) [Compound 157, N-(6-Fluorotetralin-1-yl)pyrido[3,2-d]pyrimidin-4-amine] |  |
|  |  | 47.4 | 22.9 | c1ccc2c(c1)CCC2Nc1ncnc2cccnc12 (stereo not drawn) [Compound 87, N-(2,3-dihydro-1H-inden-1-yl)pyrido[3,2-d]pyrimidin-4-amine] |  |
| 84.8 | 64.1 |  | 35.8 | Fc1cnc2c(N[C@H]3CCCc4ccccc43)ncnc2c1 [Compound 158, 7-Fluoro-N-[(1S)-tetralin-1-yl]pyrido[3,2-d]pyrimidin-4-amine] |  |

More lines, now with the values behind:

| Structure (SMILES) | inhibition at 10 µM (10 μM) [%] | inhibition at 0.1 µM (100 nM) [%] | inhibition at 0.5 µM [%] | inhibition at 0.05 µM (50 nM) [%] | other results |
| --- | --- | --- | --- | --- | --- |
| Clc1ccc(CNc2ncnc3cccnc23)cc1Cl [Compound 14, N-(3,4-Dichlorobenzyl)pyrido[3,2-d]pyrimidin-4-amine] | 1.52 |  |  |  |  |
| OC1CCC(Nc2ncnc3cccnc23)c2ccccc21 (stereo not drawn) [Compound 142-E4, 4-(Pyrido[3,2-d]pyrimidin-4-ylamino)tetralin-1-ol] |  |  |  |  | % SK3 inhibition: 10 μM: 48.28 ± 5.99 (N = 3) %; % SK3 inhibition (50 nM, 0.05 µM): 50 nM: 21.9 ± 2.32 (N = 3) %; % SK3 inhibition (100 nM, 0.1 µM): 100 nM: 37.97 ± 3.99 (N = 3) % |
| Nc1nc(NC2CCCc3ccccc32)c2ncccc2n1 (stereo not drawn) [Compound 33, N^4-(1,2,3,4-tetrahydronaphthalen-1-yl)pyrido[3,2-d]pyrimidine-2,4-diamine] | 71.5 | 53.2 |  | 30.5 |  |
| Clc1nc(NC2CCCc3ccccc32)c2ncccc2n1 (stereo not drawn) [Compound 6, 2-Chloro-N-(1,2,3,4-tetrahydronaphthalen-1-yl)pyrido[3,2-d]pyrimidin-4-amine] | 2.65 |  |  |  |  |
| COc1cccc2c1CCCC2Nc1ncnc2cccnc12 (stereo not drawn) [Compound 88, N-(5-methoxy-1,2,3,4-tetrahydronaphthalen-1-yl)pyrido[3,2-d]pyrimidin-4-amine] |  |  | 54.8 | 25.8 |  |
| c1ccc2c(c1)OCCC2Nc1ncnc2cccnc12 (stereo not drawn) [Compound 62, N-(3,4-dihydro-2H-1-benzopyran-4-yl)pyrido[3,2-d]pyrimidin-4-amine] | 54.4 | 46.8 |  | 32.1 |  |
| c1ccc2c(Nc3ncnc4cccnc34)cccc2c1 [Compound 86, N-(1-Naphtyl)pyrido[3,2-d]pyrimidin-4-amine] |  |  | 18 | -9.01 |  |
| OC1CCC(Nc2ncnc3cccnc23)c2ccccc21 (stereo not drawn) [Compound 142-E3, 4-(Pyrido[3,2-d]pyrimidin-4-ylamino)tetralin-1-ol] |  |  |  |  | % SK3 inhibition (50 nM, 0.05 µM): 50 nM: 30.69 ± 3.07 (N = 4) %; % SK3 inhibition (100 nM, 0.1 µM): 100 nM: 49.71 ± 4.48 (N = 4) %; % SK3 inhibition (10 μM): 10 μM: 58.9 ± 6.08 (N = 4) % |
| O=C1CCC(Nc2ncnc3cccnc23)c2ccccc21 (stereo not drawn) [Compound 152, 4-(Pyrido[3,2-d]pyrimidin-4-ylamino)tetralin-1-one] | 61.2 | 41.5 |  | 24.4 |  |
| OC1CCc2ccccc2C1Nc1ncnc2cccnc12 (stereo not drawn) [Compound 107, 1-(pyrido[3,2-d]pyrimidin-4-ylamino)-1,2,3,4-tetrahydro-naphthalen-2-ol] | 54.7 | 46.8 |  | 29.7 |  |
| CC1(C)CCC(Nc2ncnc3cccnc23)c2ccccc21 (stereo not drawn) [Compound 93, N-(4,4-dimethyl-1,2,3,4-tetrahydronaphthalen-1-yl)pyrido[3,2-d]pyrimidin-4-amine] | 71.8 | 53.5 |  | 45.9 |  |
| N#Cc1nc(NC2CCCc3ccccc32)c2ncccc2n1 (stereo not drawn) [Compound 32, 4-(1,2,3,4-tetrahydronaphthalen-1-ylamino)pyrido[3,2-d]pyrimidine-2-carbonitrile] |  |  | 27.7 | 23.6 |  |
| OC1CCC(Nc2ncnc3cccnc23)c2ccccc21 (stereo not drawn) [Compound 142-E1, 4-(Pyrido[3,2-d]pyrimidin-4-ylamino)tetralin-1-ol] |  |  |  | 35.3 | % SK3 inhibition (100 nM, 0.1 µM): 100 nM: 44.55 ± 5.67 (N = 5) %; % SK3 inhibition (10 μM): 10 μM: 57.16 ± 5.51 (N = 4) % |
| OC1CCC(Nc2ncnc3cccnc23)c2ccccc21 (stereo not drawn) [Compound 142-E2, 4-(Pyrido[3,2-d]pyrimidin-4-ylamino)tetralin-1-ol] |  |  |  |  | % SK3 inhibition (50 nM, 0.05 µM): 50 nM: 35.72 ± 1.79 (N = 4) %; % SK3 inhibition (100 nM, 0.1 µM): 100 nM: 59.42 ± 3.43 (N = 4) %; % SK3 inhibition (10 μM): 10 μM: 75.11 ± 2.87 (N = 4) % |
| Cc1cc(C)n(-c2nc(NC3CCCc4ccccc43)c3ncccc3n2)n1 (stereo not drawn) [Compound 67, 2-(3,5-Dimethylpyrazol-1-yl)-N-tetralin-1-yl-pyrido[3,2-d]pyrimidin-4-amine] |  | 35.3 | 39.3 |  | inhibition at 1 µM (1 μM): 82.4% |
| c1ccc2c(c1)CCCC2Nc1ncc2ncccc2n1 (stereo not drawn) [Compound 5, N-(1,2,3,4-Tetrahydronaphthalen-1-yl)pyrido[3,2-d]pyrimidin-2-amine] | 7.7 |  |  |  |  |
| Clc1ccc(CNc2ncc3ncccc3n2)cc1Cl [Compound 4, N-(3,4-Dichlorobenzyl)pyrido[3,2-d]pyrimidin-2-amine] | 3.6 |  |  |  |  |
| COCOc1ccc2c(c1)CCCC2N (stereo not drawn) [Compound 103, 6-(Methoxymethoxy)-1,2,3,4-tetrahydronaphthalen-1-amine] | 83.8 | 57.9 | 46.9 | 30.7 |  |
